# Source: patent US20240090547A1, “SWEETENER COMPOSITIONS COMPRISING MOGROSIDES AND USES THEREOF” (Firmenich Incorporated, priority 2021, published 2024)
# How the values were obtained:
# Assay type in all cases: in vivo, human
# panel of flavorists [1] = assay: Additional sensory testing for lemon-flavored (lemon-lime) beverage, flavorist panel; details: 600 ppm mogrosides, 0 to 10 scale, letter in parentheses = Duncan's test group
# Experimental: (§1) A panel of flavorists at three locations evaluated lemon-lime beverage various mogrosides at a concentration of 600 ppm mogrosides for in-mouth attributes (peak sweetness, upfront sweetness, bitterness, and mouthfeel/thickness) and aftertaste attributes (sweet taste linger), on a 0 to 10 scale. The in-mouth attributes were evaluated while holding the sample in the mouth, while the aftertaste attributes were evaluated after expectoration.
# panel of flavorists [2] = assay: Additional sensory testing for vanilla milk, flavorist panel; details: 400 ppm mogrosides, 0 to 10 scale, letter in parentheses = Duncan's test group
# Experimental: as §1, with “vanilla milk containing” for “lemon-lime beverage”, “400” for “600”, “expectoration. The data was analyzed using Duncan's new multiple range test and the scores are provided in the data below in parentheses.” for “expectoration.”
# expert panelists = assay: Expert panelists' comparison of mogrosides with stevia; details: 'Examples 4 and 5', in words
# panel of volunteers [3] = assay: Sensory testing for apple drink (panel, in-mouth and aftertaste attributes); parameters: key to Sweetness / Delayed Sweetness / Bitterness / Lingering Sweetness / Overall Off-Taste / Licorice Aftertaste / Bitterness Aftertaste / Mouth Coating: 10-point scale; normalized per attribute to average Reb M scores; details: 10-point scale; for Bitterness / Delayed Sweetness / Global Flavor Intensity / Sweetness / Thickness/Body: in-mouth, average normalized score
# Experimental: (§2) A panel of volunteers evaluated siamenoside I for in-mouth attributes (sweetness, delayed sweetness, sourness, bitterness, global flavor intensity, thickness/body, and astringence) and aftertaste (AT) attribtues (lingering sweetness, overall off-taste intensity, licorice off-tast, bitterness off-taste, and mouth coating) on a 10-point scale. Two replicate sessions were conducted, with a 20 minute break between sessions. There was a 90 second delay between samples within a session. Panelists evaluated all samples in a first session and evaluated the samples again a second time in a second session. Control samples of Rebaudioside M (Reb M) were evaluated during all sessions as a control. Mogroside V was also evaluated and sensory data for mogroside V is provided.
# (§3) Data analysis was performed using 2-way analysis of variance (ANOVA) with interaction using Tukey's HSD test. The data was normalized for each attribute according to average scores for Reb M.
# The average normalized in-mouth attributes for each sample of apple drink containing siamenoside I was evaluated below.
# The average sweetness for each sample of apple drink containing siamenoside I was evaluated below.
# panel of volunteers [4] = assay: Sensory testing for lemon-lime carbonated soft drink; parameters: key to Sweetness / Delayed Sweetness / Bitterness / Lingering Sweetness / Overall Off-Taste / Licorice Aftertaste / Bitterness Aftertaste: 10-point scale; scores normalized to average Reb M scores; details: 600 ppm (mogroside V 600 mg [sic]), average normalized score, 10-point scale
# Experimental: as §2, §3
# A panel of volunteers evaluated the siamenoside I-containing lemon-lime carbonated soft drink for in-mouth attributes and aftertaste attributes according to the methods described in Example 1 above.
# The average normalized in-mouth attributes for a sample of lemon-lime carbonated soft drink having […] was evaluated below.
# The average normalized aftertaste attributes for a sample of lemon-lime carbonated soft drink having siamenoside I was evaluated below.
# panel of volunteers [5] = assay: Sensory testing for sparkling orange beverage; details: sparkling orange beverage, 250 ppm (mogroside V 250 mg [sic]), average normalized score, 10-point scale
# Experimental: as §2, §3
# A panel of volunteers evaluated a sparkling orange beverage containing siamenodie I for in-mouth attributes and aftertaste attributes according to the methods described in Example 1 above.
# The average normalized in-mouth attributes for a sample of sparkling orange beverage containing siamenoside I was evaluated and the results are provided below.
# The average normalized aftertaste attributes for a sample of sparkling orange beverage containing siamenoside I was evaluated and the results are provided below.
# panel of volunteers [6] = assay: Sensory testing for vanilla milk; details: average normalized score, 10-point scale; for Licorice Aftertaste / Lingering Sweetness / Mouth Coating / Overall Off-Taste: aftertaste
# Experimental: as §2, §3
# A panel of volunteers evaluated vanilla milk for in-mouth attributes and aftertaste attributes according to the methods described in Example 1 above.
# The average normalized in-mouth attributes for each sample of vanilla milk was evaluated and the results are provided below.
# The average normalized aftertaste attributes for each sample of vanilla milk containing siamenoside I was evaluated and the results are provided below.
# [7] = aftertaste, after expectoration
# [8] = 250 ppm (mogroside V 250 mg [sic]), aftertaste
# [9] = 250 ppm (mogroside V 250 mg [sic])
# [10] = 500 ppm (mogroside V 500 mg [sic]), aftertaste
# [11] = 500 ppm (mogroside V 500 mg [sic])
# [12] = 200 ppm (mogroside V 200 mg [sic])
# [13] = 200 ppm (mogroside V 200 mg [sic]), in-mouth
# [14] = 400 ppm (mogroside V 400 mg [sic])
# [15] = 400 ppm (mogroside V 400 mg [sic]), in-mouth
smiles,measurement,setting,value
C[C@H](CC[C@@H](O[C@@H]1O[C@H](CO[C@@H]2O[C@H](CO)[C@@H](O)[C@H](O)[C@H]2O)[C@@H](O)[C@H](O)[C@H]1O[C@@H]1O[C@H](CO)[C@@H](O)[C@H](O)[C@H]1O)C(C)(C)O)[C@H]1CC[C@@]2(C)[C@@H]3CC=C4[C@@H](CC[C@H](O[C@@H]5O[C@H](CO)[C@@H](O[C@@H]6O[C@H](CO)[C@@H](O)[C@H](O)[C@H]6O)[C@H](O)[C@H]5O)C4(C)C)[C@]3(C)[C@H](O)C[C@]12C [Isomogroside V],Sweet Linger,panel of flavorists [1]; [7],4.857 (ab)
same,Bitterness,panel of flavorists [1]; in-mouth,2.286 (a)
same,Mouthfeel/Thickness,panel of flavorists [1]; in-mouth,2.571 (b)
same,Peak Sweetness,panel of flavorists [1]; in-mouth,5.571 (bc)
same,Upfront Sweetness,panel of flavorists [1]; in-mouth,4.000 (b)
same,Sweet Linger,panel of flavorists [2]; [7],4.625 (b)
same,Bitterness,panel of flavorists [2]; in-mouth,0.875 (b)
same,Mouthfeel/Thickness,panel of flavorists [2]; in-mouth,4.875 (ab)
same,Peak Sweetness,panel of flavorists [2]; in-mouth,6.188 (b)
same,Upfront Sweetness,panel of flavorists [2]; in-mouth,5.125 (b)
same,bitter aftertaste compared with stevia,expert panelists,lower bitter aftertaste
same,licorice aftertaste compared with stevia,expert panelists,lower licorice aftertaste
same,mouthfeel compared with stevia,expert panelists,better mouthfeel
C[C@H](CC[C@@H](O[C@@H]1O[C@H](CO[C@@H]2O[C@H](CO)[C@@H](O)[C@H](O)[C@H]2O)[C@@H](O)[C@H](O)[C@H]1O[C@@H]1O[C@H](CO)[C@@H](O)[C@H](O)[C@H]1O)C(C)(C)O)[C@H]1CC[C@@]2(C)[C@@H]3CC=C4[C@@H](CC[C@H](O[C@@H]5O[C@H](CO[C@@H]6O[C@H](CO)[C@@H](O)[C@H](O)[C@H]6O)[C@@H](O)[C@H](O)[C@H]5O)C4(C)C)[C@]3(C)[C@H](O)C[C@]12C [mogroside V],Bitterness Aftertaste,panel of volunteers [3]; [8],1.3
same,Licorice Aftertaste,panel of volunteers [3]; [8],2.3
same,Lingering Sweetness,panel of volunteers [3]; [8],2.5
same,Overall Off-Taste,panel of volunteers [3]; [8],3.4
same,Bitterness,panel of volunteers [3]; [9],1.6
same,Delayed Sweetness,panel of volunteers [3]; [9],2.5
same,Global Flavor Intensity,panel of volunteers [3]; [9],3.0
same,Sweetness,panel of volunteers [3]; [9],3.4
same,Thickness/Body,panel of volunteers [3]; [9],1.3
same,Licorice Aftertaste,panel of volunteers [3]; [10],2.0
same,Lingering Sweetness,panel of volunteers [3]; [10],3.8
same,Mouth Coating,panel of volunteers [3]; [10],2.1
same,Overall Off-Taste,panel of volunteers [3]; [10],2.9
same,Bitterness,panel of volunteers [3]; [11],1.3
same,Delayed Sweetness,panel of volunteers [3]; [11],3.1
same,Global Flavor Intensity,panel of volunteers [3]; [11],4.1
same,Sweetness,panel of volunteers [3]; [11],5.2
same,Thickness/Body,panel of volunteers [3]; [11],1.6
same,Bitterness Aftertaste,panel of volunteers [4]; aftertaste,1.6
same,Licorice Aftertaste,panel of volunteers [4]; aftertaste,2.3
same,Lingering Sweetness,panel of volunteers [4]; aftertaste,3.6
same,Overall Off-Taste,panel of volunteers [4]; aftertaste,3.7
same,Bitterness,panel of volunteers [4]; in-mouth,2.0
same,Delayed Sweetness,panel of volunteers [4]; in-mouth,3.4
same,Global Flavor Intensity,panel of volunteers [4]; in-mouth,3.9
same,Sweetness,panel of volunteers [4]; in-mouth,5.0
same,Licorice Aftertaste,panel of volunteers [5]; aftertaste,2.2
same,Lingering Sweetness,panel of volunteers [5]; aftertaste,3.6
same,Mouth Coating,panel of volunteers [5]; aftertaste,2.8
same,Overall Off-Taste,panel of volunteers [5]; aftertaste,2.9
same,Delayed Sweetness,panel of volunteers [5]; in-mouth,4.2
same,Sweetness,panel of volunteers [5]; in-mouth,5.1
same,Licorice Aftertaste,panel of volunteers [6]; [12],0.8
same,Lingering Sweetness,panel of volunteers [6]; [12],2.5
same,Mouth Coating,panel of volunteers [6]; [12],2.9
same,Overall Off-Taste,panel of volunteers [6]; [12],1.6
same,Astringence,panel of volunteers [6]; [13],0.5
same,Delayed Sweetness,panel of volunteers [6]; [13],1.9
same,Fattiness,panel of volunteers [6]; [13],3.2
same,Sourness,panel of volunteers [6]; [13],1.0
same,Sweetness,panel of volunteers [6]; [13],5.0
same,Licorice Aftertaste,panel of volunteers [6]; [14],1.1
same,Lingering Sweetness,panel of volunteers [6]; [14],3.5
same,Mouth Coating,panel of volunteers [6]; [14],0.9
same,Overall Off-Taste,panel of volunteers [6]; [14],2.2
same,Astringence,panel of volunteers [6]; [15],0.3
same,Bitterness,panel of volunteers [6]; [15],1.2
same,Delayed Sweetness,panel of volunteers [6]; [15],2.0
same,Fattiness,panel of volunteers [6]; [15],3.5
same,Global Flavor Intensity,panel of volunteers [6]; [15],4.2
same,Sourness,panel of volunteers [6]; [15],0.9
same,Sweetness,panel of volunteers [6]; [15],6.3
